# Measured values as given in ChEMBL document CHEMBL1201862, “PubChem BioAssay data set” (2004).
# Activity calls are given as the source filed them.
# Columns and labels:
# [1] = P. falciparum Dd2 growth inhibitors, dose response, SYBR Green, cherry-picked samples (AID 1159567); type: functional, cell-based
# BJ [2] = experiment: cytotoxicity toward BJ-TERT fibroblasts, dose response, cell-based, RAS-independent, luminescence (AID 1933); type: functional; settings: Homo sapiens
# BJ [3] = experiment: cells; type: functional, cell-based; settings: Homo sapiens
# BJ [4] = experiment: cytotoxicity toward BJ-TERT-LT-ST fibroblasts, dose response, cell-based, RAS-independent, luminescence (AID 1935); type: functional; settings: Homo sapiens;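 also: BJ fibroblasts immortalized with TERT plus LT and ST oncogenes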
# [5] = cytotoxicity toward DRD oncogenic fibroblasts, dose response, cell-based, non-viral oncogenic, luminescence (AID 1934); type: functional; settings: Homo sapiens
# Cytochrome P450 1A2 = target: T1, Cytochrome P450 1A2 (Homo sapiens, UniProt P05177);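 also: PubChem cytochrome P450 panel assay, CYP1A2 panel member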
# T1 sequence (P05177 whole entry): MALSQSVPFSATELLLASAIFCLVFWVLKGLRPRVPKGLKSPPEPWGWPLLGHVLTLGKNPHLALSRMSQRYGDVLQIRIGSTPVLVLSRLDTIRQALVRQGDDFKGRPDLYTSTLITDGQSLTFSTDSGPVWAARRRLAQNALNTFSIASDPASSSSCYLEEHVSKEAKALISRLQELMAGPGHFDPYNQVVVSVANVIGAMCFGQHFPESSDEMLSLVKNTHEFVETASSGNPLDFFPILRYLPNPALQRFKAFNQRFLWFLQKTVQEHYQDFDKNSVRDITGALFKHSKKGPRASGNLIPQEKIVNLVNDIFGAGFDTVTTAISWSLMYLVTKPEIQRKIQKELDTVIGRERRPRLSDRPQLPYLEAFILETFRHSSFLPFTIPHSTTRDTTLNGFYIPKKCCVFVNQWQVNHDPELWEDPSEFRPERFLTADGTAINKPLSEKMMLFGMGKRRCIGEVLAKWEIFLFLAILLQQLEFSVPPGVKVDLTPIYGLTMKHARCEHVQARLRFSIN
# Cytochrome P450 2C9 = Cytochrome P450 2C9 (Homo sapiens, UniProt P11712)
# Cytochrome P450 2C19 = Cytochrome P450 2C19 (Homo sapiens, UniProt P33261); experiment: Cytochrome panel assay with activity outcomes. Panel member name: p450-cyp2c19 Compounds with AC50 equal or less than 10 uM are considered active; type: functional; settings: read-out: AC50
# [6] = target: Luciferin 4-monooxygenase (Photinus pyralis, UniProt P08659); experiment: firefly luciferase enzyme inhibitors, dose response, biochemical, luminescence (AID 1891)
# [7] = Luminescence Cell-Based Dose Confirmation HTS to Identify Inhibitors of Platelet Dense Granule Release. [Related pubchem assays: 1663 (Primary HTS), 1678 (Summary of Project)]; type: functional
# [8] = inhibitors of HIV Env-driven cell fusion, dose response, cherry-pick (AID 652057); type: functional, cell-based
# [9] = CEM21 lymphoblast cell cytotoxicity, dose response, cytotoxicity control for viral fusion inhibitor project, CellTiter-Glo luminescence, cherry-picked (AID 652042); type: functional, cell-based;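 also: potency for signal decrease meaning cytotoxicity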
# [10] = ZM109 Env clade C HIV-1 fusion inhibitors, dose response, HeLa effector, CEM target cells, luciferase, cherry-pick (AID 652058); type: functional, cell-based
# [11] = off-target signal loss in HeLa-CEM21 co-culture – HeLa F-luc CTL cells, cherry-picked, counter-screen for HIV-1 Env fusion inhibitor project, dose response (AID 652040); type: functional, cell-based;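 also: potency for signal decrease marking cytotoxic or nonspecific inhibition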
# [12] = inhibitors of clade B AD8 Env fusion, dose response, cell-based, cherry-pick (AID 652062); type: functional;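 also: luciferase signal from cell-cell fusion driven by HIV-1 clade B AD8 Env; potency is for inhibitors of fusion seen as a drop in luminescence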
# [13] = target: T2, Corticotropin-releasing factor receptor 2/Corticotropin-releasing factor-binding protein (Homo sapiens, UniProt P24387+Q13324); experiment: Dose Response confirmation of uHTS hits for small molecule antagonists of the CRF-binding protein and CRF-R2 receptor complex.; type: functional; settings: read-out: IC50_Mean
# T2 sequence (Q13324 whole entry): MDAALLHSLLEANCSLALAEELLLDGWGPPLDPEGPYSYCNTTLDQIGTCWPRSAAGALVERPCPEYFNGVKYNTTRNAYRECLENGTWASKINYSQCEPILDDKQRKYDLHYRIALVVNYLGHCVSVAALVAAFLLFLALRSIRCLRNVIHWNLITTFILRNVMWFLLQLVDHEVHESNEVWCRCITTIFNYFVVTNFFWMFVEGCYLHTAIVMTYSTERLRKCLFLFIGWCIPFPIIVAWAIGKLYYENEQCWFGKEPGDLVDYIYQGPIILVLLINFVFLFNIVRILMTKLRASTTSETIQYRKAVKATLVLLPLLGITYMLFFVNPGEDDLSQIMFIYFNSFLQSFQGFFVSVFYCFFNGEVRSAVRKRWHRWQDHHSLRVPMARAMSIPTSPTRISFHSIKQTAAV
# T2 sequence (P24387 whole entry): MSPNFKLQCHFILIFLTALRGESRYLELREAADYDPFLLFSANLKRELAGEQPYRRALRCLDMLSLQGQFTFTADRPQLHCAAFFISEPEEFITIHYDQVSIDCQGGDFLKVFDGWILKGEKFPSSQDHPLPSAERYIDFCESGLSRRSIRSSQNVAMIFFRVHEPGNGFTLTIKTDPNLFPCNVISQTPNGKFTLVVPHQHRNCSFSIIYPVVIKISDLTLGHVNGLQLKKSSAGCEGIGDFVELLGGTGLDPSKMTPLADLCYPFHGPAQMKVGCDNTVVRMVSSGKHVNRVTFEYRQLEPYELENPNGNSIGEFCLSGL
# [14] = target: T2, Corticotropin-releasing factor receptor 2/Corticotropin-releasing factor-binding protein; experiment: activators of CRF receptor 2 with binding protein – uHTS hits, confirmation (AID 602473); type: functional; settings: read-out: EC50_Mean
# [15] = CRF-BP/CRF-R2 complex antagonists, dose response, cell-based, uHTS hits, 384-well (AID 651639); type: functional, Homo sapiens; settings: read-out: IC50_Mean
# Cytochrome P450 2D6 = Cytochrome P450 2D6 (Homo sapiens, UniProt P10635);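 also: CYP2D6 member of a cytochrome P450 panel assay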
# [16] = inhibitors of intracellular T. cruzi replication, confirmation, NIH3T3 host cells, beta-gal luminescence (AID 2044); type: functional, cell-based;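 also: intracellular parasites grown in NIH/3T3 mouse fibroblasts as host cells; luminescent beta-galactosidase reporter signal from transgenic T. cruzi replicating inside host cells; inhibitors lower the luminescence signal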
# [17] = cytotoxicity toward NIH3T3 fibroblasts, dose response, counter-screen, cell-based, ATP luminescence, mouse fibroblasts (AID 2010); type: functional;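 also: cells exposed to compound for about 90 hours before reading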
# [18] = target: T3, Heat shock factor protein 1 (Mus musculus, UniProt P38532); experiment: HSF1 potentiators in luciferase reporter cells, confirmation, cell-based, NIH3T3, luminescence, dose retest (AID 435004); type: functional;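 also: stress induced by proteasome inhibitor MG132 added 30 min after compound; luciferase reporter driven by HSF1 response element in NIH3T3 cells; actives raise luminescence as potentiators of the MG132 stress response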
# T3 sequence (P38532 whole entry): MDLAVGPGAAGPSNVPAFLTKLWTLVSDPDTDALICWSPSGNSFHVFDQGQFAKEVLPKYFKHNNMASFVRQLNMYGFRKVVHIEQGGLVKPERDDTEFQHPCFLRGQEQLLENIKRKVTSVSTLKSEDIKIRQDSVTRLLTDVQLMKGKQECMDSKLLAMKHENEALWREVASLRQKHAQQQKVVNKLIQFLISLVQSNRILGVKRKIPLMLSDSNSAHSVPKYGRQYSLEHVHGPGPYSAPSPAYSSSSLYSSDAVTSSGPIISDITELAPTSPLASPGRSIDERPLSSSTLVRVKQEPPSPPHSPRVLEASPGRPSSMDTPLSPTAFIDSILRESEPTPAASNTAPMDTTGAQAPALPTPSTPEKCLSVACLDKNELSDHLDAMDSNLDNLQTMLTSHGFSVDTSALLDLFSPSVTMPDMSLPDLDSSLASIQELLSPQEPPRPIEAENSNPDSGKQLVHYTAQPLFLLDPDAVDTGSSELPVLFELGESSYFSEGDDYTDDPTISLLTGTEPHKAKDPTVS
# [19] = target: T4, Microphthalmia-associated transcription factor (Homo sapiens, UniProt O75030); experiment: TRPM1 promoter luciferase signal decrease, dose response, MITF inhibitor project, cell-based, SK-MEL-5, cherry-picked, set 3 (AID 493073); type: functional
# T4 sequence (O75030 whole entry): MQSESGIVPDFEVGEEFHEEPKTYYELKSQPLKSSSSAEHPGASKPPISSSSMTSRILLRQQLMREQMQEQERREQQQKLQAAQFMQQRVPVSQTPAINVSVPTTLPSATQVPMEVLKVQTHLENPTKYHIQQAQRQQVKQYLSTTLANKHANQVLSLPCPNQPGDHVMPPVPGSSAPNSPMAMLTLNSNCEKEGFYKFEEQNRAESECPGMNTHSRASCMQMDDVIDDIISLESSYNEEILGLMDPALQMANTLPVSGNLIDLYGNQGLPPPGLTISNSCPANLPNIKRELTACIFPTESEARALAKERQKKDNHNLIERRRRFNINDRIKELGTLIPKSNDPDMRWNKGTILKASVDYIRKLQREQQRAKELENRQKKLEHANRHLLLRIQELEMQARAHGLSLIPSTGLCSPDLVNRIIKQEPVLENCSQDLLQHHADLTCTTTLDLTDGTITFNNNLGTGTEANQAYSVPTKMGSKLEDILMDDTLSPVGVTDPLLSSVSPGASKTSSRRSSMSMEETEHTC
# Chain of Cytochrome P450 2C9 (P11712 whole entry): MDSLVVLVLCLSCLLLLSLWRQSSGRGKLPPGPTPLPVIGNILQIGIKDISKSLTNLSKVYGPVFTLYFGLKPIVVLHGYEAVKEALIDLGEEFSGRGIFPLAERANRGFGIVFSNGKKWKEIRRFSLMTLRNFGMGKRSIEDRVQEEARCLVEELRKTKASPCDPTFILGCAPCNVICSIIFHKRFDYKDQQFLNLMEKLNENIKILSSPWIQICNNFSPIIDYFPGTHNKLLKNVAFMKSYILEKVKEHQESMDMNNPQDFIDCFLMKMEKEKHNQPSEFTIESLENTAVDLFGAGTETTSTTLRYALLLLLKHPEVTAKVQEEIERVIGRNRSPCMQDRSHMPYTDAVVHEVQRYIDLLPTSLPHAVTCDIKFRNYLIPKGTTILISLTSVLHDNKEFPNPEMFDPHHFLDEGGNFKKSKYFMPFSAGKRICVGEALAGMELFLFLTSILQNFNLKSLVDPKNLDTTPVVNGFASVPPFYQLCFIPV
# Chain of Cytochrome P450 2D6 (P10635 whole entry): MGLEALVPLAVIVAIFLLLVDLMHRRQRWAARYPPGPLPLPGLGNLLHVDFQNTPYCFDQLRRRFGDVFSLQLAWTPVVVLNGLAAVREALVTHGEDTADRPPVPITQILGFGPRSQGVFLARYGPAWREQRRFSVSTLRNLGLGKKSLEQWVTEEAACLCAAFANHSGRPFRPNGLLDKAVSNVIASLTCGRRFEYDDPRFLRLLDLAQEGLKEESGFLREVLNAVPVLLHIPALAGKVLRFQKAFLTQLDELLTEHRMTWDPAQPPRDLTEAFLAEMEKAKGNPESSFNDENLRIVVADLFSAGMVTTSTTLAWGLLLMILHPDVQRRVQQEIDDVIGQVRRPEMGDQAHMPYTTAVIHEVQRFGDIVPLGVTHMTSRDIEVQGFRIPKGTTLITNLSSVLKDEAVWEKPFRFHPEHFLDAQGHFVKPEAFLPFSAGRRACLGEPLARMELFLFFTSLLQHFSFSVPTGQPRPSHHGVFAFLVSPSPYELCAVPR
# Chain of Cytochrome P450 2C19 (P33261 whole entry): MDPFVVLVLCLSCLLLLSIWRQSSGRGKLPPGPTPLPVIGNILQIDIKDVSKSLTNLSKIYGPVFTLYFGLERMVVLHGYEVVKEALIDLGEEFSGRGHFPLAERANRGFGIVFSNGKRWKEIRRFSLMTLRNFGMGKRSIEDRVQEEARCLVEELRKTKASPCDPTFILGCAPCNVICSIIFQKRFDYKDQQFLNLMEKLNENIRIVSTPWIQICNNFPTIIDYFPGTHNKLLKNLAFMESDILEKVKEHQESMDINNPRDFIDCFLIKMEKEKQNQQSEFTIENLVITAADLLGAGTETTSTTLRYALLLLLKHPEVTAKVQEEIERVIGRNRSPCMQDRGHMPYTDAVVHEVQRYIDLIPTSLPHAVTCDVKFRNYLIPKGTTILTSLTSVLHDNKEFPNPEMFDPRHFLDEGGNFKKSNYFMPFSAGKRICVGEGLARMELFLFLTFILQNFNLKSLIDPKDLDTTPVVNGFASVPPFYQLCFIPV
# Chain of Luciferin 4-monooxygenase (P08659 whole entry): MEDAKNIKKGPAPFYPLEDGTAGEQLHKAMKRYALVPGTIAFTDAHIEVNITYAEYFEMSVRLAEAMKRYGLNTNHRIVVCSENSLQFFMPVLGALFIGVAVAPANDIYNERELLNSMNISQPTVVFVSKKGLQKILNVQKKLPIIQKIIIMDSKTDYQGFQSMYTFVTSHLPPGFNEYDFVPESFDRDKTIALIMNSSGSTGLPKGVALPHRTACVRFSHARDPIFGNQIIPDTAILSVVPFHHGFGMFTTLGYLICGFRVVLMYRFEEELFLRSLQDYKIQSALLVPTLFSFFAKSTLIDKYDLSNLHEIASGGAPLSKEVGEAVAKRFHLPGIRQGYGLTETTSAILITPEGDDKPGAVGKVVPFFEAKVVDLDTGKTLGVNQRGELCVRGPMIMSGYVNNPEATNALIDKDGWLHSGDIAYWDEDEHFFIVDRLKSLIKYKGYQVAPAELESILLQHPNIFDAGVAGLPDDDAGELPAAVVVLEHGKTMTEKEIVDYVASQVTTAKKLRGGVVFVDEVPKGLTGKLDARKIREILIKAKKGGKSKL
smiles,measurement,setting,value
C[C@H](CO)N1C[C@H](C)[C@H](CN(C)S(=O)(=O)c2ccccc2)Oc2cc(C#Cc3ccncc3)ccc2S1(=O)=O,AC50,[1],6.63 µM (active)
CO[C@@H]1CN(C)C(=O)c2ccc(NC(=O)Nc3cc(Cl)cc(Cl)c3)cc2OC[C@H](C)NC[C@H]1C,AC50,[1],6.54 µM (active)
O=C(CCl)Nc1ccc(Oc2cnc3ccccc3n2)cc1,EC50,BJ [2],6.36 µM (active)
same,EC50,BJ [3],> 150 µM (not active)
same,EC50,BJ [4],> 75 µM (inconclusive)
same,EC50,[5],16.9 µM (active)
same,AC50,Cytochrome P450 1A2,8.91 µM (inconclusive)
same,AC50,Cytochrome P450 2C9,inconclusive
Cc1nc(-c2cccnc2)sc1C(=O)Nc1ccc(F)cc1F,AC50,Cytochrome P450 2C19,8.91 µM (inconclusive)
same,AC50,Cytochrome P450 2C9,inconclusive
O=C(NC(=O)c1ccccc1)Nc1ccccn1,EC50,[6],4.17 µM (active)
same,EC50,[7],2.1 µM (active)
same,AC50,[8],2.44 µM (active)
same,AC50,[9],39.1 µM (active)
same,AC50,[10],37.7 µM (active)
same,AC50,[11],9.35 µM (active)
same,AC50,[12],6.09 µM (active)
CC(=O)N(C(C)=O)c1cccc(N(Cc2ccccc2)Cc2ccccc2)c1,IC50,[13],5.83 µM (active)
same,EC50,[14],> 53 µM (inactive)
same,IC50,[15],> 20 µM (inactive)
CCOc1ccc(S(=O)(=O)NCc2ccc(F)cc2)c2cccnc12,AC50,Cytochrome P450 2C19,7.94 µM (inconclusive)
same,AC50,Cytochrome P450 2D6,31.6 µM (inconclusive)
same,AC50,Cytochrome P450 2C9,inconclusive
Cc1ccc(C(C(=O)NC2CCCCC2)N(C(=O)Cc2c[nH]c3ccccc23)c2ccccc2)o1 (centres undefined),EC50,[16],1.6 µM (active)
same,EC50,[17],> 60 µM (not active)
same,EC50,[18],> 260 µM (inactive)
same,AC50,[8],4.14 µM (active)
same,AC50,[9],47.4 µM (active)
same,AC50,[10],2.63 µM (active)
same,AC50,[11],10.3 µM (active)
same,AC50,[12],6.79 µM (active)
Cc1ccc2c(C(=O)CCl)c(C)[nH]c2c1,EC50,[16],3.94 µM (active)
same,EC50,[17],11.3 µM (active)
same,AC50,[19],8.17 µM (active)
C=CCNc1nc(SCC=C)nc2ccsc12,AC50,Cytochrome P450 2D6,15.8 µM (inconclusive)
same,AC50,Cytochrome P450 2C9,inconclusive
COc1ccc([N+](=O)[O-])cc1NCc1ccccc1,IC50,[13],12 µM (active)
same,EC50,[14],> 53 µM (inactive)
same,IC50,[15],14.5 µM (active)
